From patent US6288110A, “Pharmaceutical compositions comprising disulfiram” (Yeda Research and Development Co Ltd., priority 1998, dated 2001)

Legend:
[1] = test system: transmammary carcinogenesis; conditions: 7,12-dimethylbenz(a)anthracene, mice; cited from earlier work
aldehyde dehydrogenases = conditions: cited from earlier work
[2] = test system: Lewis lung (D122) metastasis in the lungs; experiment: Lewis lung carcinoma metastasis, i.v. model; type: in vivo, C57/BL mice
Description: The Lewis lung carcinoma (3LL), which originated spontaneously in a C57/BL/6J (H-2^b) mouse, is a malignant tumor that produces spontaneous lung metastases. The metastatic clone D122, kindly provided by Prof. Lea Eisenbach (Weizmann Institute of Science, Rehovot, Israel), was used herein for tissue culture and for in vivo experiments. The cell cultures were maintained in DMEM supplemented with 10% heat-inactivated FCS, glutamine, antibiotics, sodium pyruvate and nonessential amino acids.
To distinguish between the effect on the migration of the cells from the main tumor and the development of a tumor from a metastatic foci, the i.v. model was used. D122 cells (5×10^5) were injected i.v. to the tail of C57/B1 male mice and after 24 days mice were killed and their lungs weighed. Treatment with disulfiram was started 3 days following the injection of D122 cells. […]
To distinguish between the effect on the migration of the cells from the main tumor and the development of a tumor from a metastatic foci, the i.v. metastastis model was used as described in section (f) of materials and Methods above. D122 cells were injected i.v. to the tail of C57/B1 male mice. Three days after, disulfiram was administered to the mice per os 3 times per week, at concentrations of 13-40 μg/mouse.

oxidases = conditions: cited from earlier work
[3] = test system: neoplasia of the large bowl; conditions: 1,2-dimethylhydrazine; cited from earlier work

CCN(CC)C(=S)SSC(=S)N(CC)CC [disulfiram, Bis(diethylthiocarbamoyl) disulfide]
inhibition of transmammary carcinogenesis [1]: inhibit transmammary carcinogenesis | inhibition of aldehyde dehydrogenases (aldehyde dehydrogenases): inhibit | metastasis in the lungs compared with water-fed control (in words) ([2]; 13-40 μg, 3 times a week, 24 days, n=6, p=0.023-0.037): significantly smaller | inhibition of the development of metastatic foci in the lungs ([2]; 13-40 μg/mouse per os 3 times per week): 83-95% | decrease of metastasis to the lungs ([2]; 13-40 μg/mouse, 3 times a week, 24 days): 6-19 fold | inhibition of oxidases (oxidases): inhibit | interference with neoplasia of the large bowl [3]: interfere with induction of cancer
